Laboratory results taken from ChEMBL document CHEMBL1133293, “Synthesis of a water-soluble prodrug of entacapone” (Bioorg Med Chem Lett, 2000).
Converted amounts (≈) assume the structure as drawn.

Columns and labels:
[1] = Half life period in rabbit liver homogenate; format: ADME, tissue-based, Oryctolagus cuniculus
[2] = Half life period t pH 7.4 at 37 degree Centigrade; format: ADME
[3] = Solubility at pH 7.4; format: physicochemical; conditions: buffer
[4] = Solubility at pH 1.2; format: physicochemical; conditions: buffer

With `CCN(CC)C(=O)C(C#N)=Cc1cc(O)c(O)c([N+](=O)[O-])c1` the half-life [1] was 58 min.
Work on `CCN(CC)C(=O)/C(C#N)=C/c1cc(OP(=O)([O-])[O-])c([O-])c([N+](=O)[O-])c1.[Na+].[Na+].[Na+]` yielded a half-life [2] of 92.8 days, a solubility [3] of 30 mg/mL and a solubility [4] of 30 mg/mL.
`CCN(CC)C(=O)/C(C#N)=C/c1cc(O)c(O)c([N+](=O)[O-])c1` [ENTACAPONE] showed a solubility [3] of 1.75 mg/mL (≈ 5730 µM), a half-life [1] of 58 min and a solubility [4] of 0.017 mg/mL (≈ 55.7 µM).
